# Results from patent publication US20160120915A1, “METHODS FOR MANIPULATING IMMUNE RESPONSES BY ALTERING MICROBIOTA” (NEW YORK UNIVERSITY, priority 2013, published 2016).
# Structures can show the parent of a compound that is named as a salt.
# Tests used:
# [1] = system: small intestine lamina propria lymphocytes; test: EL-PAT: flow cytometry of small intestine lamina propria lymphocytes; type: in vivo, C57BL/6 mice; settings: 7-week old; for small intestine CD4+ IL-17A+ (IL-17A expression): males, vs control
# Experimental: For the experiments, dams and their litters were divided into control and antibiotic groups. In the EL-PAT study dams in the antibiotic groups received Tylosin tartrate (Sigma Aldrich, St. Louis Mo.) dissolved in distilled deionized water (neutral pH) at a concentration of 0.33 mg/ml, and dams in the control group received non-acidified water. Mice in the PAT3 group received two additional doses of antibiotics at day 27 and 36 of life for 3 days. In some experiments, C57BL/6 mice were exposed to one, PAT1, (n=17, M=9, F=8) or three, PAT3, (n=19, M=10, F=9) doses of the macrolide Tylosin in non-acidified water or non-acidified water alone (control, n=12, M=9, F=3), early-in-life, to mirror pediatric antibiotic exposures. For the first antibiotic pulse […] of Tylosin tartrate (Sigma) was dissolved in 250 ml of non-acidified water and given to PAT1 and PAT3 lactating dams at pup day 5 of life for 5 days. For the second and third pulse, pups received the antibiotic directly at day 27 and day 36 of life respectively, for three days. Mice were sacrificed at 7 weeks of age and fecal, ileal and cecal contents were collected. Throughout the experiment mouse weight and fecal contents were collected. After euthanasia of the mice by CO2 asphyxiation, small intestines were excised and placed in cold calcium and magnesium-free HBSS supplemented with HEPES-Bicarbonate and 5% FBS (CMF). Peyer's patches were removed and the intestine was opened longitudinally along its entire length. Intestinal contents were removed by washing thoroughly with cold CMF and treated with 1 mM DTT to remove contaminating intra-epithelial lymphocytes. Subsequently, the intestinal tissue was treated twice with 1.3 mM EDTA to remove epithelial cells. To isolate lamina propria lymphocytes, intestinal tissue was cut laterally into ˜0.5 cm pieces and digested in collagenase IV digestion mix (0.5 mg/ml of collagenase IV, 200 ug/ml of DNase 1 suspended in RPMI supplemented with 10% FBS and HEPES for 1 hour. For each digestion procedure, samples were incubated at 37° C. with vigorous shaking After each treatment, cell isolates were filtered through 100 μm diameter nylon mesh (BD Bioscience). For further purification of leukocytes, intestinal cell suspensions were subjected to a 44% /67% discontinuous Percoll (GE Healthcare Life Sciences) gradient. Cells were spun at 2,200 rpm for 20 minutes and collected at the 44% /67% Percoll interface. Viable cells were carefully removed from the interface, washed, and suspended in RPMI complete media. […] All cells were acquired on a LSRII (BD Bioscience) and analyzed using FlowJo software (version 9.3.2; Tree Star Inc.). […]
# [2] = system: ileum; test: TRANSTAT: ileal expression by qPCR in 18-week microbiota donor mice; type: in vivo, C57BL6J mice; settings: 18-week STAT-donor mice vs control donors
# Experimental: Total RNA was extracted from mouse tissues using the RNeasy Mini Kit (Qiagen), according to the manufacturer's instructions. Total RNA was reverse transcribed to cDNA using the Verso™ cDNA Synthesis Kit (Thermo Scientific). To generate standards for expression analysis of each target gene, the cDNA region of interest was PCR-amplified and the PCR product was cloned into pGEM-T easy (Promega). qPCR was performed with LightCycler 480 SYBR Green I Master mix (Roche) and run in a LightCycler 480 system (Roche). Target mRNA was normalized to GAPDH mRNA as an internal control in each sample.
# C57BL/6J (Jackson Labs, Bar Harbor, Me.) mice either received no antibiotics (control) or continuous STAT penicillin. Mice were weaned at 4 weeks onto normal chow (13.2% fat, 5053 PicoLab Rodent Diet 20, LabDiet, Brentwood, Mo.), then changed to a high fat diet (45% kcal from fat, D12451, Research Diets, New Brunswick, N.J.) at 6 weeks of life. At 18 weeks of age, from each group (Control, n=9; STAT, n=8), the three animals with weight at or closest to the median were selected as cecal content donors. Donor mice were humanely euthanized, and the proximal ⅓ of the cecum was aseptically removed and after a series of processing steps, either the pooled Control or STAT microbiota suspensions were placed in the stomachs of the germ-free recipients (Control, n=7 recipients; STAT, n=8) by oral gavage. Recipients were chosen randomly, and the inoculum alternated between control and STAT recipients. […] The microbiota-recipient mice were housed in autoclaved cages, under specific pathogen-free conditions, and fed an irradiated high fat diet (45% kcal from fat, D12451, Research Diets, New Brunswick, N.J.), and followed for the next 35 days until sacrifice. Fecal pellets were collected serially from the time of transfer.
# Mice were fed normal chow, then switched to high fat diet at 6 weeks of age. At 18 weeks, cecal contents were collected from 3 control and 3 STAT mice, based on their median weight, pooled, and transferred to 3-4 week old germ-free Swiss Webster mice by oral gavage. Every attempt was made to maintain viability of the microbiota by protecting the microbiota from oxygen and minimizing time between microbiota collection and transfer. Microbiota recipient mice were monitored for 5 weeks, then ileal samples were collected to assess immunity by flow cytometry and qPCR. Ileal gene expression was also measured by microarray and Nanostring Immunology Panel (FIG. 13).
# Expression levels were measured by qPCR and normalized by GAPDH expression.
SMILES,"intestinal CD4+ IL-17A+ populations ([1]; females, three antibiotic doses, p<0.01)","CD4− IL-17A+ populations ([1]; females, three therapeutic doses, p<0.05)",small intestine CD4+ IL-17A+ (IL-17A expression) ([1]; one therapeutic dose),small intestine CD4+ IL-17A+ (IL-17A expression) ([1]; three therapeutic doses),ileal expression of IL-17A [2],ileal expression of IL-17F [2],ileal expression of RORγt [2],ileal expression of Reg3γ [2],ileal expression of defensin β1 [2]
"CC[C@H]1OC(=O)C[C@@H](O)[C@H](C)[C@@H](O[C@@H]2O[C@H](C)[C@@H](O[C@H]3C[C@@](C)(O)[C@@H](O)[C@H](C)O3)[C@H](N(C)C)[C@H]2O)[C@@H](CC=O)C[C@@H](C)C(=O)/C=C/C(C)=C/[C@@H]1CO[C@@H]1O[C@H](C)[C@@H](O)[C@@H](OC)[C@H]1OC [Tylosin, Tylosin tartrate]",significantly decreased,decreased,significantly decreased,significantly decreased,–,–,–,–,–
"CC1(C)S[C@@H]2[C@H](NC(=O)COc3ccccc3)C(=O)N2[C@H]1C(=O)[O-].[K+] [STAT, penicillin VK]",–,–,–,–,significantly down-regulated,downward trend,downward trend,significantly down-regulated,significantly down-regulated
